Reference: PMC10408170, “Synthesis, DFT and molecular docking of novel (Z)-4-bromo-N-(4-butyl-3 (quinolin-3-yl)thiazol-2(3H)-ylidene)benzamide as elastase inhibitor” (BMC Chemistry, 2023)
pIC50: −log10 of the molar value.

Biological target: T1, Elastase from porcine pancreas (Sus scrofa, UniProt P00772)
T1 construct: gene CELA1
Test: enzyme inhibition assay, p-nitroaniline release from N-succinyl-Ala-Ala-Ala-p-nitroanilide
Type: biochemical

T1 sequence (P00772 27-266): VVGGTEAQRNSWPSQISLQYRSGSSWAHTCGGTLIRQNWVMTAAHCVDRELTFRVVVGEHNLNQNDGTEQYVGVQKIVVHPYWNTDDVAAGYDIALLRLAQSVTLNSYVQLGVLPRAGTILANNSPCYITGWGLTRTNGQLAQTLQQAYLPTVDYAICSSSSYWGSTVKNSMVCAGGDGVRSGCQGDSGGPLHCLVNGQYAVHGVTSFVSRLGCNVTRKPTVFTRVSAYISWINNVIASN

How did the pIC50 turn out when `CCCCc1cs/c(=N\C(=O)c2ccc(Br)cc2)n1-c1cnc2ccccc2c1` [compound 6, (Z)-4-bromo-N-(4-butyl-3-(quinolin-3-yl)thiazol-2(3H)-ylidene)benzamide] was run?
The pIC50 was 5.92.
